According to PubChem BioAssay AID328 (DTP/NCI, 2004):
Inconclusive results and toxic doses are left out. Rule for the calls: active = survival T/C of 150% or more; inactive = T/C below 125% in these data. Starred links: 1 amine or outer side, 2 acyl side, 3 side chain; linkers in the order of their positions; H or OH if unused. Positions of bridges follow the written chain, without caps; N, C: chain ends. Non-standard residues stand in square brackets, D forms with d. Residues, ends and D or L forms follow the SMILES beside them. Chains are numbered I, II in the order given. Actinocin(1to9) = Cc1c2oc3c(C)ccc(C(=O)[*:2])c3nc-2c(C(=O)[*:1])c(N)c1=O; NMeV = CN[CH](C(=O)O)C(C)C; Sar = CNCC(=O)O

Tested on: BDF1 mice, P388 leukemia ip, median survival T/C
Experiment: NCI In Vivo Anticancer Drug Screen. Data for tumor model P388 Leukemia (intraperitoneal) in B6D2F1 (BDF1) mice
Conditions: endpoint: median survival time, higher = longer survival
In short: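 In tumour-bearing mice, survival after compound treatment is set against the vehicle group and given as a quotient.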

Measured: T/C

c1ccc(-c2oc3ccc4ccccc4c3c2-c2ccc(OCCN3CCCC3)cc2)cc1
inactive: dose: 10.0 mg/kg/injection, schedule: Q01DX009 (ip), vehicle: Klucel (hydroxypropylcellulose) (HPC) 105 % of control | dose: 20.0 mg/kg/injection, schedule: Q01DX009 (ip), vehicle: Klucel (hydroxypropylcellulose) (HPC) 95 % of control | dose: 40.0 mg/kg/injection, schedule: Q01DX009 (ip), vehicle: Klucel (hydroxypropylcellulose) (HPC) 105 % of control | dose: 80.0 mg/kg/injection, schedule: Q01DX009 (ip), vehicle: Klucel (hydroxypropylcellulose) (HPC) 100 % of control

CCC(C)C1NC(=O)C(NC(=O)c2c3nc4c(C(=O)NC5C(=O)NC(C(C)CC)C(=O)N6CCCC6C(=O)N(C)CC(=O)N(C)C(C(C)C)C(=O)OC5C)ccc(C)c4oc-3c(C)c(=O)c2N)C(C)OC(=O)C(C(C)C)N(C)C(=O)CN(C)C(=O)C2CCCN2C1=O (stereo not drawn) (I: TIP[Sar][NMeV] / II: TIP[Sar][NMeV]; ester I:1-I:C, II:1-II:C; linker I:N-II:N via Actinocin(1to9); configuration not given here)
active: dose: 0.05 mg/kg/injection, schedule: Q01DX010 (ip), vehicle: saline 245 % of control | dose: 0.1 mg/kg/injection, schedule: Q01DX010 (ip), vehicle: saline 300 % of control | dose: 0.2 mg/kg/injection, schedule: Q01DX001 (ip), vehicle: water 162 % of control | dose: 0.4 mg/kg/injection, schedule: Q01DX001 (ip), vehicle: water 157 % of control | dose: 0.8 mg/kg/injection, schedule: Q01DX001 (ip), vehicle: water 166 % of control | dose: 3.1 micrograms/kg/injection, schedule: Q01DX010 (ip), vehicle: saline 180 % of control | dose: 6.2 micrograms/kg/injection, schedule: Q01DX010 (ip), vehicle: saline 175 % of control | dose: 12.5 micrograms/kg/injection, schedule: Q01DX009 (ip), vehicle: water 170 % of control | dose: 12.5 micrograms/kg/injection, schedule: Q01DX010 (ip), vehicle: saline 185 % of control | dose: 25.0 micrograms/kg/injection, schedule: Q01DX009 (ip), vehicle: water 189 % of control | dose: 25.0 micrograms/kg/injection, schedule: Q01DX010 (ip), vehicle: saline 220 % of control | dose: 25.0 micrograms/kg/injection, schedule: Q04DX003 (ip), vehicle: saline 150 % of control | dose: 50.0 micrograms/kg/injection, schedule: Q01DX009 (ip), vehicle: water 200 % of control | dose: 50.0 micrograms/kg/injection, schedule: Q01DX010 (ip), vehicle: saline 215 % of control | dose: 50.0 micrograms/kg/injection, schedule: Q04DX003 (ip), vehicle: saline 181 % of control | dose: 75.0 micrograms/kg/injection, schedule: Q04DX003 (ip), vehicle: water 162 % of control | dose: 100.0 micrograms/kg/injection, schedule: Q01DX009 (ip), vehicle: water 206 % of control | dose: 100.0 micrograms/kg/injection, schedule: Q01DX010 (ip), vehicle: saline 295 % of control | dose: 100.0 micrograms/kg/injection, schedule: Q04DX003 (ip), vehicle: saline 190 % of control | dose: 150.0 micrograms/kg/injection, schedule: Q04DX003 (ip), vehicle: water 172 % of control | dose: 200.0 micrograms/kg/injection, schedule: Q01DX001 (ip), vehicle: saline 177 % of control | dose: 200.0 micrograms/kg/injection, schedule: Q04DX003 (ip), vehicle: saline 200 % of control | dose: 300.0 micrograms/kg/injection, schedule: Q04DX003 (ip), vehicle: water 209 % of control | dose: 400.0 micrograms/kg/injection, schedule: Q01DX001 (ip), vehicle: saline 190 % of control | dose: 400.0 micrograms/kg/injection, schedule: Q04DX003 (ip), vehicle: saline 231 % of control | dose: 600.0 micrograms/kg/injection, schedule: Q04DX003 (ip), vehicle: water 224 % of control
inactive: dose: 1.6 mg/kg/injection, schedule: Q01DX001 (ip), vehicle: water 86 % of control | dose: 3.1 micrograms/kg/injection, schedule: Q01DX001 (ip), vehicle: saline 113 % of control | dose: 3.1 micrograms/kg/injection, schedule: Q04DX003 (ip), vehicle: saline 109 % of control | dose: 6.3 micrograms/kg/injection, schedule: Q01DX001 (ip), vehicle: saline 118 % of control | dose: 6.3 micrograms/kg/injection, schedule: Q04DX003 (ip), vehicle: saline 118 % of control | dose: 12.5 micrograms/kg/injection, schedule: Q01DX001 (ip), vehicle: saline 122 % of control | dose: 25.0 micrograms/kg/injection, schedule: Q01DX001 (ip), vehicle: saline 122 % of control | dose: 200.0 micrograms/kg/injection, schedule: Q01DX010 (ip), vehicle: saline 110 % of control

Cc1c(Cl)cccc1NC(=O)Oc1ccc(Cl)cc1Cl
inactive: dose: 50.0 mg/kg/injection, schedule: Q04DX003 (ip), vehicle: saline with Tween-80 109 % of control | dose: 100.0 mg/kg/injection, schedule: Q04DX003 (ip), vehicle: saline with Tween-80 122 % of control | dose: 200.0 mg/kg/injection, schedule: Q04DX003 (ip), vehicle: saline with Tween-80 113 % of control

O=[n+]1c2ccccc2n([O-])c2ccccc21.[Cl][Ni][Cl]
inactive: dose: 6.25 mg/kg/injection, schedule: Q04DX003 (ip), vehicle: saline with Tween-80 105 % of control | dose: 12.5 mg/kg/injection, schedule: Q04DX003 (ip), vehicle: saline with Tween-80 112 % of control
